Results from publication PMC4942689, “Deciphering the function of the CNGB1b subunit in olfactory CNG channels” (Scientific Reports, 2016).

Assays:
CNGA2RE:A4RE:B1bRE = target: T1, CNGA2RE:A4RE:B1bRE (Rattus norvegicus, UniProt A0A8I5ZN27+Q00195+Q64359, R1106E/R430E/R538E); experiment: Ligand binding, confocal patch-clamp fluorometry; parameters: key to Ligand binding to CNGA4 / Ligand binding to CNGB1b: +: ligand binding to the respective modulatory subunits was either observed or not; −: ligand binding to the respective modulatory subunits was either observed or not
T1 construct: expressed in transfected cells; host or cells: Xenopus laevis oocytes (cRNA injection), excised inside-out patches
Excerpt: (§1) The channels to be studied were expressed in Xenopus oocytes. We first tested the subunit composition in our channels when coexpressing different combinations of subunits by single-channel recordings. For CNGA2:A4, CNGA2:B1b and CNGA2:A4:B1b channels we exclusively obtained the specific and easily distinguishable single-channel activity reported earlier when injecting respective amounts of RNA[7][13]. We therefore assumed that the channels formed had always the expected subunit composition. The specific binding of cyclic nucleotides and the activation of the CNG channels were measured in parallel by means of confocal patch-clamp fluorometry in excised patches, using fluorescent cyclic nucleotide derivatives. The method has been described previously.
(§2) To verify the hypothesis that the CNGB1b subunit in CNGA2:A4:B1b channels binds cyclic nucleotides, we coexpressed CNGB1b with CNGA4RE and either CNGA2RE or CNGA2TM and measured ligand binding in the presence of 10 μM fcGMP. […] To verify the specificity of the binding to the CNGB1b subunit in these heterotetrameric channels, we coexpressed the CNGB1bRE subunit with CNGA2RE and CNGA4RE.
(§3) The ligand binding was measured in macropatches by patch-clamp fluorometry[41][42] combined with confocal microscopy. […] Recordings were performed with an LSM 510 or 710 confocal microscope (Zeiss, Jena, Germany) and were triggered by the ISO3 software (MFK, Niedernhausen, Germany). To distinguish between the fluorescence of the unbound ligands from that of the bound ligands, a second dye, DY647 (Dyomics, Jena, Germany), was added to the bath solution. The 543-nm and 633-nm lines of a He-Ne laser were used to excite fcAMP/fcGMP and DY647, respectively. The method of confocal patch-clamp fluorometry has been described in detail previously.

CNGA2RE:A4RE:B1b = target: T2, CNGA2RE:A4RE:B1b (Rattus norvegicus, UniProt A0A8I5ZN27+Q00195+Q64359, R430E/R538E); experiment: Ligand binding, confocal patch-clamp fluorometry; parameters: key to Ligand binding to CNGA4 / Ligand binding to CNGB1b: +: ligand binding to the respective modulatory subunits was either observed or not; −: ligand binding to the respective modulatory subunits was either observed or not
T2 construct: expressed in transfected cells; host or cells: Xenopus laevis oocytes (cRNA injection), excised inside-out patches
Excerpt: as §1, §2, §3

CNGA2TM:A4RE:B1b = target: T3, CNGA2TM:A4RE:B1b (Rattus norvegicus, UniProt A0A8I5ZN27+Q00195+Q64359, R430E/T539M); experiment: Ligand binding, confocal patch-clamp fluorometry; parameters: key to Ligand binding to CNGA4 / Ligand binding to CNGB1b: +: ligand binding to the respective modulatory subunits was either observed or not; −: ligand binding to the respective modulatory subunits was either observed or not
T3 construct: expressed in transfected cells; host or cells: Xenopus laevis oocytes (cRNA injection), excised inside-out patches
Excerpt: as §1, §2, §3

CNGA2TM:A4 = target: T4, CNGA2TM:A4 (Rattus norvegicus, UniProt Q00195+Q64359, T539M); experiment: Ligand binding, confocal patch-clamp fluorometry; parameters: key: +: ligand binding to the respective modulatory subunits was either observed or not; −: ligand binding to the respective modulatory subunits was either observed or not; conditions: 10 μM; construct CNGA2TM:A4
T4 construct: expressed in transfected cells; host or cells: Xenopus laevis oocytes (cRNA injection), excised patches
Excerpt: as §1, §3

CNGA2RE:A4 = tested on: CNGA2RE:A4; parameters: method as in Nache et al., 2012; key: +: ligand binding to the respective modulatory subunits was either observed or not; −: ligand binding to the respective modulatory subunits was either observed or not; conditions: 10 μM; construct CNGA2RE:A4; ref Nache et al., 2012; cited from earlier work
CNGA4 = tested on: CNGA4; parameters: method as in Nache et al., 2012; key: +: ligand binding to the respective modulatory subunits was either observed or not; −: ligand binding to the respective modulatory subunits was either observed or not; conditions: 10 μM; construct CNGA4; ref Nache et al., 2012; cited from earlier work
CNGA2TM:A4RE = tested on: CNGA2TM:A4RE; parameters: method as in Nache et al., 2012; key: +: ligand binding to the respective modulatory subunits was either observed or not; −: ligand binding to the respective modulatory subunits was either observed or not; conditions: 10 μM; construct CNGA2TM:A4RE; ref Nache et al., 2012; cited from earlier work
CNGB1b = tested on: CNGB1b; parameters: method as in Nache et al., 2012; key: +: ligand binding to the respective modulatory subunits was either observed or not; −: ligand binding to the respective modulatory subunits was either observed or not; conditions: 10 μM; construct CNGB1b; ref Nache et al., 2012; cited from earlier work
[1] = target: T5, homotetrameric CNGA2 channels (Rattus norvegicus, UniProt Q00195); experiment: Concentration-activation relationship, inside-out patch-clamp, Xenopus oocytes; type: biochemical
T5 construct: expressed in transfected cells; host or cells: Xenopus laevis oocytes (cRNA injection), excised inside-out patches
Description: Patch-clamp experiments were performed using an Axopatch 200B amplifier (Molecular Devices LLC, CA, U.S.A.) in the inside-out configuration. The patch pipettes for recording of macroscopic currents were pulled from borosilicate glass tubing (outer diameter 2.0 mm, inner diameter 1.0 mm; Hilgenberg GmbH, Germany). […] The patches were formed as pushed inside-out patches. […] Cyclic nucleotide concentration jumps were performed using a double-barreled glass pipette mounted on a piezo-driven device. Intracellular (bath) and extracellular (pipette) solutions contained (mM) 150 KCl, 1 EGTA, 5 Hepes, pH = 7.4 with KOH. […] Currents in the absence of the cyclic nucleotide were subtracted. All patches included in this study were first tested for channel expression in the presence of a saturating ligand concentration. Only patches with large current, i.e. a large number of channels, were included in our statistics. The currents were measured at +10 mV or, if mentioned, at +100 mV. Fits of equations to data points were performed with the 8.1G® software (OriginLab Corporation, Northampton, U.S.A.). Concentration-activation relationships were obtained by relating the actual current amplitude, I, to the maximum current amplitude elicited by a saturating concentration of ligand, Imax, and plotting this ratio as function of the ligand concentration, x. […]

[2] = 10 μM, construct CNGA2RE:A4RE:B1bRE
[3] = 10 μM, construct CNGA2RE:A4RE:B1b
[4] = 10 μM, construct CNGA2TM:A4RE:B1b

T3 sequence (Q00195 whole entry T539M): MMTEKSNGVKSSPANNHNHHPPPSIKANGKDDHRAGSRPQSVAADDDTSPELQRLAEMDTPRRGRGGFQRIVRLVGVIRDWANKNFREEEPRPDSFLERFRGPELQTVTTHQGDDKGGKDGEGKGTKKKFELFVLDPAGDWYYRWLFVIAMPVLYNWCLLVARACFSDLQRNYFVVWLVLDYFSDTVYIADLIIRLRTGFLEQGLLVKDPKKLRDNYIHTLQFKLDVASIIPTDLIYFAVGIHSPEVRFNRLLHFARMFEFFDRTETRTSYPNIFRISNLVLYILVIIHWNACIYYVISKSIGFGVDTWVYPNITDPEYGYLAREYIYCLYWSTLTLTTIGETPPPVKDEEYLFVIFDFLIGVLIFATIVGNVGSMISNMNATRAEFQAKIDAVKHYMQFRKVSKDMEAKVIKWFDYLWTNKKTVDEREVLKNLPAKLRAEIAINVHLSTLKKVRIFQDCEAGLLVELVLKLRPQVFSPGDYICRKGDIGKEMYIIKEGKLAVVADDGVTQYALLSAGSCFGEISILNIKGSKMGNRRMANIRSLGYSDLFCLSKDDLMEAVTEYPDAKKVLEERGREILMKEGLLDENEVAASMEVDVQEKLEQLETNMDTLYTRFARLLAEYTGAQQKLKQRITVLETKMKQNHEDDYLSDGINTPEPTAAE
T3 sequence (Q64359 whole entry R430E): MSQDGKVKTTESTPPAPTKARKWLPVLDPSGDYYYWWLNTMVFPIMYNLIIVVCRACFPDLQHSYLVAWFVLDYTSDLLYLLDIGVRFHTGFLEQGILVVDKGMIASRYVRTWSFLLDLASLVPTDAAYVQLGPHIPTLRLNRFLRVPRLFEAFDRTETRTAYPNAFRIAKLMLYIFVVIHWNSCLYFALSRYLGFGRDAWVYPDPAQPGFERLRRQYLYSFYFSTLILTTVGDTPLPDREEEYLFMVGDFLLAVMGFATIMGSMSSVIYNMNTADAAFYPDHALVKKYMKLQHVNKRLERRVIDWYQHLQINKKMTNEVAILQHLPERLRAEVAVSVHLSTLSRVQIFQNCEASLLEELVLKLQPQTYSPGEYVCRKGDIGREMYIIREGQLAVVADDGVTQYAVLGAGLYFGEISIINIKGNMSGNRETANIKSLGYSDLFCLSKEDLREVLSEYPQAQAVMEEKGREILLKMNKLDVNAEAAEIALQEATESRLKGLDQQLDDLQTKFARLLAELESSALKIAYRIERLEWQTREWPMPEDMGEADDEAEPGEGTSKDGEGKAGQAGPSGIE
T3 sequence (A0A8I5ZN27 1-858 isoform A0A8I5ZN27-2, stated change not applied): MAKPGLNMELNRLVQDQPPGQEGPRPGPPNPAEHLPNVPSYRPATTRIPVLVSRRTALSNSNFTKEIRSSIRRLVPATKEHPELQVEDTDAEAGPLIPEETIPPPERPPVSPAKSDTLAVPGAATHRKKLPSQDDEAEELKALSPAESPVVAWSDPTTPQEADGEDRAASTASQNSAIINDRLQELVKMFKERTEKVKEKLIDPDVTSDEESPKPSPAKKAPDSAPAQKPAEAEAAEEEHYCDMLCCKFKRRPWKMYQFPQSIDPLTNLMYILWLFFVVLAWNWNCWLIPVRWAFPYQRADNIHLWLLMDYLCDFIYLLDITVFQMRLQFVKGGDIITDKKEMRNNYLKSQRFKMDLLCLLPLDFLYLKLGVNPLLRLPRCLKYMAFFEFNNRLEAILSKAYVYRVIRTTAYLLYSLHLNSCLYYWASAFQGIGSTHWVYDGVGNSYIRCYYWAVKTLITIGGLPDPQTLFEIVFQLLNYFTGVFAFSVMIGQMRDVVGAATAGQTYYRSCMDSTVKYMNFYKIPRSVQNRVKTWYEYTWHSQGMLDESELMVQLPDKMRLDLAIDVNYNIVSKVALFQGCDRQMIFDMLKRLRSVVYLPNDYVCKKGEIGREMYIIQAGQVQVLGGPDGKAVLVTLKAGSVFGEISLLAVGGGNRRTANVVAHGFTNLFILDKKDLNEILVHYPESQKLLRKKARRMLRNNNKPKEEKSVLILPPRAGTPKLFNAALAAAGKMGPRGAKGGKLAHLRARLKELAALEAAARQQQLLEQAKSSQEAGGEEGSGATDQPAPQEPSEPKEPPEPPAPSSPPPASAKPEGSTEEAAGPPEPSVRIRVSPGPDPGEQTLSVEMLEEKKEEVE
T2 sequence (Q00195 whole entry R538E): as the sequence (Q00195 whole entry T539M) above, with R538E, M539T counted along it
T2 sequence (Q64359 whole entry R430E): as the sequence (Q64359 whole entry R430E) above
T2 sequence (A0A8I5ZN27 1-858 isoform A0A8I5ZN27-2, stated change not applied): as the sequence (A0A8I5ZN27 1-858 isoform A0A8I5ZN27-2, stated change not applied) above
T1 sequence (Q00195 whole entry R538E): as the sequence (Q00195 whole entry T539M) above, with R538E, M539T counted along it
T1 sequence (Q64359 whole entry R430E): as the sequence (Q64359 whole entry R430E) above
T1 sequence (A0A8I5ZN27 1-858 isoform A0A8I5ZN27-2 R657E): as the sequence (A0A8I5ZN27 1-858 isoform A0A8I5ZN27-2, stated change not applied) above, with R657E counted along it
T5 sequence (Q00195 whole entry): as the sequence (Q00195 whole entry T539M) above, with M539T counted along it
T4 sequence (Q00195 whole entry T539M): as the sequence (Q00195 whole entry T539M) above
T4 sequence (Q64359 whole entry): as the sequence (Q64359 whole entry R430E) above, with E430R counted along it

Molecule	binding (in words) (CNGA2RE:A4RE:B1bRE; 10 μM fcGMP, CNGB1bRE with CNGA2RE and CNGA4RE)	Ligand binding to CNGA4 (CNGA2RE:A4RE:B1bRE; [2])	Ligand binding to CNGB1b (CNGA2RE:A4RE:B1bRE; [2])	binding to the CNGB1b subunit (in words) (CNGA2RE:A4RE:B1b; 10 μM fcGMP, CNGB1b with CNGA4RE and CNGA2RE)	Ligand binding to CNGA4 (CNGA2RE:A4RE:B1b; [3])	Ligand binding to CNGB1b (CNGA2RE:A4RE:B1b; [3])	binding to the CNGB1b subunit (in words) (CNGA2TM:A4RE:B1b; 10 μM fcGMP, CNGB1b with CNGA4RE and CNGA2TM)	Ligand binding to CNGA4 (CNGA2TM:A4RE:B1b; [4])	Ligand binding to CNGB1b (CNGA2TM:A4RE:B1b; [4])	Ligand binding to CNGA4 (CNGA2TM:A4)	Ligand binding to CNGA4 (CNGA2RE:A4)	Ligand binding to CNGA4 (CNGA4)	Ligand binding to CNGA4 (CNGA2TM:A4RE)	Ligand binding to CNGB1b (CNGB1b)	H ([1]; Hill coefficient, Equation 1)	EC50 ([1]; fit with Equation 1) [µM]
8-[DY-547]-AET-cGMP [fcGMP]	essentially diminished	−	−	robust binding	−	+	robust binding	−	+	+	+	−	−	−		
Nc1nc2c(ncn2[C@@H]2O[C@@H]3COP(=O)(O)O[C@H]3[C@H]2O)c(=O)[nH]1 [cGMP]															1.9	1.74
